Columns and labels:
Assay in all cases: Kinase inhibitor library screening, PrestoBlue cell viability, 1 or 10 μM, 72 h
[1] = test system: IGR37-GP cells (Dabrafenib-resistant); settings: IGR37 GP
Protocol: (§1) After 72 h of treatment, cell viability was assessed using the PrestoBlue Cell Viability Reagent (ThermoFisher Scientific). Measurements were performed with the CLARIOstar Monochromator microplate reader (BMG Labtech).
(§2) Kinase inhibitor library screening. […] Each cell line was treated in its sensitive form (parental), and also as 2 resistant derivatives, which were made resistant to either Vemurafenib (XP) or Dabrafenib (GP). Drugs were added at 2 different concentrations, 1 and 10 μM, for 72 h and cell viability was assessed using the PrestoBlue Cell Viability assay. Results are depicted as % viability compared to untreated cells. Each cell line was analyzed at least in duplicate. […] (XLSX 95 kb)

[2] = test system: 501Mel-GP cells (Dabrafenib-resistant); settings: 501Mel GP
Protocol: as §1, §2

IGR37 cells (parental) = settings: IGR37 Parental
Protocol: as §1, §2

[3] = test system: A375-GP cells (Dabrafenib-resistant); settings: A375 GP; for cell viability (kinase inhibitor library screening): in %; for Cell viability in kinase inhibitor library screening, A375 GP, 1μΜ / Cell viability in kinase inhibitor library screening, A375 GP, 10μΜ: 72 h
Protocol: as §1, §2

501Mel cells (parental) = settings: 501Mel Parental
Protocol: as §1, §2

[4] = test system: 501Mel-XP cells (Vemurafenib-resistant); settings: 501Mel XP
Protocol: as §1, §2

[5] = test system: A375-XP cells (Vemurafenib-resistant); settings: A375 XP
Protocol: as §1, §2

[6] = test system: IGR37-XP cells (Vemurafenib-resistant); settings: IGR37 XP
Protocol: as §1, §2

A375 cells (parental) = settings: A375 Parental, 72 h
Protocol: as §1, §2

## N#CC1(c2ccc(NC(=O)c3cccnc3NCc3ccncc3)cc2)CCCC1 [Apatinib (YN968D1)]
[1]; 1μΜ, in %
  cell viability (kinase inhibitor library screening): 94.0
[1]; 10μΜ, in %
  cell viability (kinase inhibitor library screening): 95.0
[2]; 1μΜ, in %
  cell viability (kinase inhibitor library screening): 102.7
[2]; 10μΜ, in %
  cell viability (kinase inhibitor library screening): 98.0
IGR37 cells (parental); 1μΜ, in %
  cell viability (kinase inhibitor library screening): 103.0
IGR37 cells (parental); 10μΜ, in %
  cell viability (kinase inhibitor library screening): 105.2
[3]; 1μΜ
  cell viability (kinase inhibitor library screening): 97.5
[3]; 10μΜ
  cell viability (kinase inhibitor library screening): 98.6
501Mel cells (parental); 1μΜ, in %
  cell viability (kinase inhibitor library screening): 103.5
501Mel cells (parental); 10μΜ, in %
  cell viability (kinase inhibitor library screening): 103.9
[4]; 1μΜ, in %
  cell viability (kinase inhibitor library screening): 112.2
[4]; 10μΜ, in %
  cell viability (kinase inhibitor library screening): 105.3
[5]; 1μΜ, in %
  cell viability (kinase inhibitor library screening): 103.9
[5]; 10μΜ, in %
  cell viability (kinase inhibitor library screening): 105.3
[6]; 1μΜ, in %
  cell viability (kinase inhibitor library screening): 105.2
[6]; 10μΜ, in %
  cell viability (kinase inhibitor library screening): 86.2

## OCCn1cc(-c2cnc3nnn(Cc4ccc5ncccc5c4)c3n2)cn1 [PF-04217903]
[1]; 1μΜ, 72 h
  cell viability (kinase inhibitor library screening): 105.7%
[1]; 10μΜ, 72 h
  cell viability (kinase inhibitor library screening): 91.4%
[2]; 1μΜ, 72 h
  cell viability (kinase inhibitor library screening): 89.0%
[2]; 10μΜ, 72 h
  cell viability (kinase inhibitor library screening): 82.3%
IGR37 cells (parental); 1μΜ, 72 h
  cell viability (kinase inhibitor library screening): 119.0%
IGR37 cells (parental); 10μΜ, 72 h
  cell viability (kinase inhibitor library screening): 104.5%
501Mel cells (parental); 1μΜ, 72 h
  cell viability (kinase inhibitor library screening): 97.4%
501Mel cells (parental); 10μΜ, 72 h
  cell viability (kinase inhibitor library screening): 99.2%
[4]; 1μΜ, 72 h
  cell viability (kinase inhibitor library screening): 68.7%
[4]; 10μΜ, 72 h
  cell viability (kinase inhibitor library screening): 68.6%
[5]; 1μΜ, 72 h
  cell viability (kinase inhibitor library screening): 107.0%
[5]; 10μΜ, 72 h
  cell viability (kinase inhibitor library screening): 110.9%
[6]; 10μΜ, 72 h
  cell viability (kinase inhibitor library screening): 67.3%
A375 cells (parental); 1μΜ
  cell viability (kinase inhibitor library screening): 111.4%

## CNC(=O)c1ccc(C)c(-n2c(C)cc(OCc3ccc(F)cc3F)c(Br)c2=O)c1 [PH-797804]
[2]; 1μΜ, 72 h, in %
  Cell viability in kinase inhibitor library screening, 501Mel GP, 1μΜ: 106.6
[2]; 10μΜ, 72 h, in %
  Cell viability in kinase inhibitor library screening, 501Mel GP, 10μΜ: 91.3
IGR37 cells (parental); 1μΜ, 72 h, in %
  Cell viability in kinase inhibitor library screening, IGR37 Parental, 1μΜ: 103.0
[3]; 1μΜ
  Cell viability in kinase inhibitor library screening, A375 GP, 1μΜ: 103.3
[3]; 10μΜ
  Cell viability in kinase inhibitor library screening, A375 GP, 10μΜ: 87.3
501Mel cells (parental); 1μΜ, 72 h, in %
  Cell viability in kinase inhibitor library screening, 501Mel Parental, 1μΜ: 98.2
[4]; 1μΜ, 72 h, in %
  Cell viability in kinase inhibitor library screening, 501Mel XP, 1μΜ: 90.4
[4]; 10μΜ, 72 h, in %
  Cell viability in kinase inhibitor library screening, 501Mel XP, 10μΜ: 84.3
[5]; 10μΜ, 72 h
  Cell viability in kinase inhibitor library screening, A375 XP, 10μΜ: 95.8
[6]; 10μΜ, 72 h
  Cell viability in kinase inhibitor library screening, IGR37 XP, 10μΜ: 74.4%
[6]; 1μΜ, 72 h, in %
  Cell viability in kinase inhibitor library screening, IGR37 XP, 1μΜ: 104.2
A375 cells (parental); 10μΜ
  Cell viability in kinase inhibitor library screening, A375 Parental, 10μΜ: 84.4
A375 cells (parental); 1μΜ
  Cell viability in kinase inhibitor library screening, A375 Parental, 1μΜ: 109.2

## Cc1ccccc1-n1c(Cn2ncc3c(N)ncnc32)nc2cccc(C)c2c1=O [PIK-293]
[2]; 10μΜ, 72 h, in %
  Cell viability in kinase inhibitor library screening, 501Mel GP, 10μΜ: 90.9
IGR37 cells (parental); 1μΜ, 72 h, in %
  Cell viability in kinase inhibitor library screening, IGR37 Parental, 1μΜ: 105.2
IGR37 cells (parental); 10μΜ, 72 h, in %
  Cell viability in kinase inhibitor library screening, IGR37 Parental, 10μΜ: 107.6
[3]; 1μΜ
  Cell viability in kinase inhibitor library screening, A375 GP, 1μΜ: 97.7
[3]; 10μΜ
  Cell viability in kinase inhibitor library screening, A375 GP, 10μΜ: 99.7
501Mel cells (parental); 10μΜ, 72 h, in %
  Cell viability in kinase inhibitor library screening, 501Mel Parental, 10μΜ: 99.9
[4]; 1μΜ, 72 h, in %
  Cell viability in kinase inhibitor library screening, 501Mel XP, 1μΜ: 112.1
[4]; 10μΜ, 72 h, in %
  Cell viability in kinase inhibitor library screening, 501Mel XP, 10μΜ: 91.5
[5]; 1μΜ, 72 h
  Cell viability in kinase inhibitor library screening, A375 XP, 1μΜ: 106.1
[5]; 10μΜ, 72 h
  Cell viability in kinase inhibitor library screening, A375 XP, 10μΜ: 104.4
[6]; 10μΜ, 72 h
  Cell viability in kinase inhibitor library screening, IGR37 XP, 10μΜ: 77.6%
[6]; 1μΜ, 72 h, in %
  Cell viability in kinase inhibitor library screening, IGR37 XP, 1μΜ: 103.2

— paper PMC6364417, “Kinase inhibitor library screening identifies synergistic drug combinations effective in sensitive and resistant melanoma cells” (Journal of Experimental & Clinical Cancer Research : CR, 2019)
